# Measurements: patent publication US11241442B2, “Methods of use for TRP channel antagonist-based combination cancer therapies” (President and Fellows of Harvard College, priority 2017, dated 2022)
# Tests used:
# MCF-10A acini = assay: [H2O2]i by Hyper-2 in MCF-10A 3D acini; assay type: cell-based
# Method: (§1) For the measurement of [H2O2]i levels in MCF-10A acini and HCC1569 spheroids, cells were transduced with a lentiviral vector encoding Hyper-2 or Hyper-2 (C199S). The Hyper-2 fluorescence was measured at 37° C. in HEPES-buffered saline (HBS) containing the following (in mM): 150 NaCl, 6 KCl, 1.2 MgSO4, 2 CaCl2, 11.5 glucose, and 25 HEPES (pH adjusted to 7.4 with NaOH). Fluorescence images of the cells were acquired through the Eclipse Ti-E microscope (Nikon) with ORCA-R2 cooled CCD camera (Hamamatsu Photonics) and analyzed with Metafluor image acquisition software (Molecular Devices). The 488:405-nm ratio images were obtained on a pixel-by-pixel basis. 3D images are shown as one section from midstructure. For the measurement of [H2O2]i levels in MCF-10A cells cultured in suspension, cell clumps were dissociated with trypsin and stained with 10 μM peroxy green-1 for 30 min at 37° C. Cells were then subjected to flow cytometric analysis (FACSCalibur; BD Biosciences). ROS levels determined by flow cytometry are reported as mean fluorescence intensity expressed in arbitrary units. Hyper-2 ratio images are representative from two independent experiments and averaged Hyper-2 ratio represents mean±SD from the sum of two independent experiments.
# TRPA1 [1] = biological target: T1, TRPA1 (Homo sapiens, UniProt O75762); assay: Ca2+ responses to carboplatin in HCC1569 cells; assay type: cell-based; conditions: 10 μM AP-18 or 300 nM A-967079
# T1 construct: endogenous in cells; host or cells: HCC1569 breast cancer cells (2D culture or 3D spheroids; shGFP or shTRPA1 transduced)
# T1 sequence (O75762 whole entry): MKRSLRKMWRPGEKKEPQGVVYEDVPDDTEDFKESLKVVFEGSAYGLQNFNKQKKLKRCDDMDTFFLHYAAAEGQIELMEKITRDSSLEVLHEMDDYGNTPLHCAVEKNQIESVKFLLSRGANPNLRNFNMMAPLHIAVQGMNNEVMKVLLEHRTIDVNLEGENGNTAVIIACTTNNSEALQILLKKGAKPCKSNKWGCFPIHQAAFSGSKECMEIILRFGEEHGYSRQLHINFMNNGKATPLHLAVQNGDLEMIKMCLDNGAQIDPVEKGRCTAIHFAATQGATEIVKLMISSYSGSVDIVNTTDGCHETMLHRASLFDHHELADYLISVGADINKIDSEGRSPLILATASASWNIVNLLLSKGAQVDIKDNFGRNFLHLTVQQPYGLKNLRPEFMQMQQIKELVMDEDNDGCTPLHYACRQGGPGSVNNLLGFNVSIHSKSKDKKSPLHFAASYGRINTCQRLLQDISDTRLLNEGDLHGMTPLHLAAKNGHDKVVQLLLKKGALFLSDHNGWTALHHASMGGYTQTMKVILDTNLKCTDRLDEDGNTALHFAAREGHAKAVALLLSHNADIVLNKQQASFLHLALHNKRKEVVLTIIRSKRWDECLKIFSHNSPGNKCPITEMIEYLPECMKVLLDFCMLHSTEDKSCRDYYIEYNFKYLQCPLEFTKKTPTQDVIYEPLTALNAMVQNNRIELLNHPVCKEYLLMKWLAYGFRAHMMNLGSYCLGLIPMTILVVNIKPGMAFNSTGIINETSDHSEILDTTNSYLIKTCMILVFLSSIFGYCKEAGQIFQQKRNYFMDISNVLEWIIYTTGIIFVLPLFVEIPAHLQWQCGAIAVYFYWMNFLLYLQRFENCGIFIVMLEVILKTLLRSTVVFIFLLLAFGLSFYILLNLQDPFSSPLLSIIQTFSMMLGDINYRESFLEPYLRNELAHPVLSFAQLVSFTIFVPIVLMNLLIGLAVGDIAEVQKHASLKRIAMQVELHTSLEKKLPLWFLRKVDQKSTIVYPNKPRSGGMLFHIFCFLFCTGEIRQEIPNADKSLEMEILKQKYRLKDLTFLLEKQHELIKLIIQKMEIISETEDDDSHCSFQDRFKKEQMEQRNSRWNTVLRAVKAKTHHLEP
# Method: (§2) For the measurement of [Ca^2+]i levels in cells cultured in 2D or 3D (in Matrigel), cells were stained with 3.5 μM fura-2-AM (Life Technology) in the presence of 2.5 mM probenecid (Sigma) and 0.02% Pluronic F-127 (Sigma) for 45 min at 37° C. The fura-2 fluorescence was measured in HBS solution containing 1.25 mM probenecid at 37° C. Fluorescence images of the cells were acquired through the Eclipse Ti-E microscope with ORCA-R2 cooled CCD camera and analyzed with Metafluor. The 340:380-nm ratio images were obtained on a pixel-by-pixel basis and were converted to Ca^2+ concentrations by in vivo calibration using 5 μM ionomycin as described previously (Nishida et al., Biochem. Biophys. Res. Commun., 262:350-354, 1999). 3D images are shown as one section from midstructure. For the measurement of [Ca^2+]i levels in cells cultured in suspension, cell clumps were dissociated with trypsin and [Ca^2+]i levels were determined by using Fluo-4 NW Calcium Assay Kit (Molecular Probes). Cells were stained with Fluo-4 according to the manufacturer's instructions and subjected to flow cytometric analysis (FACSCalibur) using HBS as sheath fluid. [Ca^2+]i levels determined by flow cytometry are reported as mean fluorescence intensity expressed in arbitrary units. Time courses of [Ca^2+]i rises in 2D culture are representative of three independent experiments and averaged Δ[Ca^2+]i represents mean±SEM from the sum of three independent experiments. Fura-2 ratio images in 3D culture are representative of two independent experiments and averaged [Ca^2+]i in 3D culture represents mean±SEM from the sum of two independent experiments.
# TRPA1 [2] = assay: [Ca2+]i by fura-2 in TRPA1-expressing MCF-10A 3D acini; assay type: cell-based; conditions: inner ECM-deprived region of MCF-10A acini
# Method: as §2
# HCC1569 cells [3] = assay: Soft agar anchorage-independent growth of HCC1569 cells; assay type: cell-based
# Method: (§3) Cells were added to the regular MCF-10A or HCC1569 growth media (±AP-18, A-967079, or Trolox) plus 0.4% low-melt agarose (Sigma) and layered onto a bed of growth media plus 0.5% low-melt agarose. Cells were fed every 4 days with growth media (±AP-18, A-967079, or Trolox) plus 0.4% low-melt agarose. At the indicated times, viable colonies were stained with iodonitrotetrazolium chloride (Sigma). Colony number and colony size were determined using ImageJ. Images shown are representative of at least three independent experiments.
# HCC1569 cells [4] = assay: Live cell number and cell death under carboplatin in HCC1569 cells; assay type: cell-based; conditions: carboplatin 72 h
# Method: For the measurements of live cell number and cell death under treatment with H2O2, diamide, or chemotherapies, cells were cultured on 96-well plates in the presence or absence of these drugs for indicated times and stained with 5 μM bisBenzimide H 33342 trihydrochloride (Hoechst; Sigma) and 5 μM propidium iodide (PI; Sigma) for 1 h at 37° C. Hoechst- and/or PI-positive cells were counted using a laser scanning cytometer, Acumen Cellista (TTPLabTech). Apoptotic cells induced by H2O2 treatment were measured by staining with Annexin V-Alexa Fluor® 488 conjugate (Life Technologies) and PI in Ca^2+-containing solution (10 mM HEPES pH 7.4, 140 mM NaCl; 2.5 mM CaCl2), followed by flow cytometric measurement of fluorescence using a FACSCalibur. Flow cytometry plots are representative of three independent experiments. For the counting of viable cells cultured in suspension, cell clumps were dissociated with trypsin and stained with trypan blue. Viable cells were counted using the Countless Automated Cell Counters (Thermo Fisher Scientific). For the measurement of percentage of dead cells cultured in suspension, cells were cultured on poly HEMA-coated 96-well plates and stained with 5 μM Hoechst and 5 μM PI for 1 h at 37° C. without enzymatic dissociation of cell clumps. Hoechst- and/or PI-positive areas were measured using Acumen Cellista. Apoptotic cells induced by detachment were measured by staining with 5 μM Hoechst and 5 μM of CellEvent™ Caspase-3/7 Green Detection Reagent (Thermo Fisher Scientific) for 1 h at 37° C. without enzymatic dissociation of cell clumps. Hoechst- and/or CellEvent™ Caspase-3/7 Green Detection Reagent-positive areas were measured using Acumen Cellista. For the cell cycle analysis, enzymatically dissociated cells were fixed with ice-cold 70% EtOH for at least 30 min at 4° C., washed three times with PBS at 4° C., resuspended in PBS, treated with 100 μg/ml RNase A (Sigma), and stained with 50 μg/ml PI. The stained samples were subjected to flow cytometric analysis (FACSCalibur).
# HCC1569 spheroids = assay: [H2O2]i by Hyper-2 in HCC1569 spheroids; assay type: cell-based; conditions: AP-18, 300 nM A-967079 or 5 mM NAC
# Method: as §1
# TRPA1 [5] = biological target: T1, TRPA1; assay: [Ca2+]i by fura-2 in HCC1569 spheroids; assay type: cell-based; conditions: AP-18, 300 nM A-967079 or 5 mM NAC
# Method: as §2
# [6] = system: EL-12-58 xenograft tumors; assay: EL-12-58 xenograft tumor growth in NRG mice; assay type: in vivo
# [7] = in vivo; cited from earlier work
# TRPA1 [8] = biological target: T1, TRPA1; assay: [Ca2+]i by Fluo-4 flow cytometry in ECM-detached TRPA1-expressing MCF-10A cells; assay type: cell-based; conditions: 1 mM NAC; 24 h after plating in non-adherent plates
# Method: as §2, with “Time courses of [Ca^2+]i rises in 2D culture are representative of three independent experiments and averaged Δ[Ca^2+]i represents mean±SEM from the sum of three independent experiments. Fura-2 ratio images in 3D culture are representative of two independent experiments and averaged [Ca^2+]i in 3D culture represents mean±SEM from the sum of two independent experiments.” left out
# MCF-10A cells = assay: [H2O2]i by peroxy green-1 flow cytometry in ECM-detached MCF-10A cells; assay type: cell-based; conditions: 1 mM NAC; 24 h after plating in non-adherent plates
# Method: as §1
# [9] = system: MCF-10A cells expressing HER2; assay: Soft agar colony formation of MCF-10A cells expressing HER2; assay type: cell-based
# Method: as §3
# HCC1569 cells [10] = assay: HCC1569 xenograft tumor growth in NRG mice; assay type: in vivo
# Method: All animal studies were performed according to protocols approved by the Institutional Animal Care and Use Committee, the Standing Committee on Animals at Harvard University. One million HCC1569 cells stably expressing either TRPA1 or GFP (control) shRNAs were injected into cleared mammary fatpads of 8-week-old female NOD-Rag1^null IL2rg^null (NRG) mice. Tumor volume (mm^3) was monitored by caliper measurements in two perpendicular dimensions (the formula: (d^2×D)/2, where d and D represent the shortest and longest diameters, respectively) at the indicated time points. After tumors reached 3 to 5 mm in diameter, animals were randomized into the following treatment arms: (i) 37.5 mg/kg carboplatin or (ii) its vehicle (H2O) administrated via intraperitoneal injection for HCC1569 cell-transplanted animals; (i) oral administration of 30.0 mg/kg AM-0902, (ii) intraperitoneal administration of 37.5 mg/kg carboplatin, (iii) oral administration of 30.0 mg/kg AM-0902 plus intraperitoneal administration of 37.5 mg/kg carboplatin, or (iv) oral administration of 1% Tween 80/2% HPMC/97% water/methanesulfonic acid pH 2.2 (vehicle for AM-0902) plus intraperitoneal administration of H2O (vehicle for carboplatin) for EL-12-58 cell-transplanted animals. Power calculations are based on the standard deviation and effect size from pilot experiments in HCC1569 cells. […]
# Unstained breast cancer and normal breast tissue arrays were purchased from US Biomax (BR1504a for breast tumors, BN08111 for normal breast tissues). […] Tumor slides stained for TRPA1, blinded and were evaluated by light microscopy and scored by a veterinary pathologist. Images of tissue sections were captured at 4× magnification to create a merged image of the entire section and at 20× magnification for quantification of cleaved caspase-3-positive nuclei, using a Olympus VS120 Slide Scanner. […] Relative apoptosis was quantified by determining the percentage of cleaved caspase-3-positive cells from more than five random fields, per section, from each tumor in the group, and normalized to the shGFP-expressing tumors treated with vehicle. […]
# [11] = Weight loss of EL-12-58 xenograft animals; assay type: in vivo, mice; conditions: mean±SD
# Method: All animal studies were performed according to protocols approved by the Institutional Animal Care and Use Committee, the Standing Committee on Animals at Harvard University. One million HCC1569 cells stably expressing either TRPA1 or GFP (control) shRNAs were injected into cleared mammary fatpads of 8-week-old female NOD-Rag1^null IL2rg^null (NRG) mice. Tumor volume (mm^3) was monitored by caliper measurements in two perpendicular dimensions (the formula: (d^2×D)/2, where d and D represent the shortest and longest diameters, respectively) at the indicated time points. After tumors reached 3 to 5 mm in diameter, animals were randomized into the following treatment arms: (i) 37.5 mg/kg carboplatin or (ii) its vehicle (H2O) administrated via intraperitoneal injection for HCC1569 cell-transplanted animals; (i) oral administration of 30.0 mg/kg AM-0902, (ii) intraperitoneal administration of 37.5 mg/kg carboplatin, (iii) oral administration of 30.0 mg/kg AM-0902 plus intraperitoneal administration of 37.5 mg/kg carboplatin, or (iv) oral administration of 1% Tween 80/2% HPMC/97% water/methanesulfonic acid pH 2.2 (vehicle for AM-0902) plus intraperitoneal administration of H2O (vehicle for carboplatin) for EL-12-58 cell-transplanted animals. Power calculations are based on the standard deviation and effect size from pilot experiments in HCC1569 cells. The sample size of seven mice per group provides greater than 95% power to detect a ˜80% difference in change in tumor volume between control and shTRPA1-treated cells with a two-sided type I error rate of 5%. Averaged tumor volume represents mean±SEM.
# HCC1569 cells [12] = conditions: cited from earlier work
smiles,measurement,setting,value
CCC(=N\O)/C(C)=C/c1ccc(F)cc1 [A-967079],increase in [H2O2]i (Hyper-2) in inner ECM-deprived cells,MCF-10A acini,unaffected
same,[Ca2+]i rises upon carboplatin treatment,TRPA1 [1],significantly suppressed
same,oscillatory Ca2+ responses upon carboplatin treatment,TRPA1 [1],significantly suppressed
same,TRPA1- or E681K-induced [Ca2+]i rises,TRPA1 [2],abolished
same,anchorage-independent growth (number and average size of colonies),HCC1569 cells [3],impaired
same,cell death in response to carboplatin treatment,HCC1569 cells [4],enhanced
same,live cell number in response to carboplatin treatment,HCC1569 cells [4],substantially suppressed
same,increase in [H2O2]i (Hyper-2) in inner region of spheroids,HCC1569 spheroids,unaffected
same,elevated [Ca2+]i of inner cells of spheroids,TRPA1 [5],suppressed
Cn1cnc2ncn(Cc3nc(CCc4ccc(Cl)cc4)no3)c(=O)c21 [AM-0902],tumor volume / tumor growth,"[6]; AM-0902 30.0 mg/kg oral twice daily, carboplatin 37.5 mg/kg intraperitoneal",reduced
same,tumor mass,"[6]; at end point, AM-0902 30.0 mg/kg oral twice daily, carboplatin 37.5 mg/kg intraperitoneal",reduced
same,live tumor cell area relative to total area (H&E),[6]; compared with vehicle or single carboplatin treatment,reduced
same,plasma half-life (T1/2),[7],2.8 h
"CC(=O)N[C@@H](CS)C(=O)O [NAC, N-Acetyl-L-cysteine]",increase in [H2O2]i (Hyper-2) in inner ECM-deprived cells,MCF-10A acini,abolished
same,detachment-induced TRPA1-dependent increase in [Ca2+]i,TRPA1 [8],abolished
same,TRPA1- or E681K-induced [Ca2+]i rises,TRPA1 [2],abolished
same,TRPA1-mediated chemoresistance to carboplatin,HCC1569 cells [4]; 5 mM NAC,largely eliminated
same,increase in [H2O2]i (Hyper-2) in inner region of spheroids,HCC1569 spheroids,abolished
same,elevated [Ca2+]i of inner cells of spheroids,TRPA1 [5],suppressed
same,detachment-induced increase in [H2O2]i,MCF-10A cells,suppressed
Cc1c(C)c2c(c(C)c1O)CCC(C)(C(=O)O)O2 (stereo not drawn) [Trolox],colony number and size,[9]; Trolox treatment,strongly increased
same,TRPA1-induced increase in number and average size of colonies,[9]; wild-type or E681K TRPA1 expression,eliminated
N.N.O=C([O-])C1(C(=O)[O-])CCC1.[Pt+2] [carboplatin],tumor response to carboplatin,"HCC1569 cells [10]; tumors expressing shGFP (control), 37.5 mg/kg carboplatin intraperitoneal twice a week",resistant
same,tumor growth after carboplatin treatment,"HCC1569 cells [10]; tumors expressing shTRPA1, 37.5 mg/kg carboplatin intraperitoneal twice a week",significant reduction
same,apoptosis (cleaved caspase-3 staining of tumor sections),"HCC1569 cells [10]; tumors expressing shTRPA1, carboplatin treatment",increased
same,averaged weight loss,[11]; day 26,3.94±1.02%
same,averaged weight loss,[11]; day 29,7.01±2.80%
same,averaged weight loss,[11]; day 32,10.3±3.36%
N.N.[Cl][Pt][Cl] [cisplatin],Resistance rank among 893 cancer cell lines,HCC1569 cells [12],45
same,resistance z-score,HCC1569 cells [12],1.54
